This note sets out measurements from article PMC11791976, “CDC20‐Mediated Selective Autophagy Degradation of PBRM1 Affects Immunotherapy for Renal Cell Carcinoma” (Advanced Science, 2024).

Where a SMILES comes first, the peptide text is derived from it. The star is where a group is joined. Cbz = O=C(OCc1ccccc1)*

In the test the test system is PBRM1. Put plainly: Immunoblot of PBRM1 / CDC20 protein level in cells treated with tool compounds. Type of test: cell-based. To be noted: for CDC20 protein level / PBRM1 protein level: cell cycle block, 24 h, Figure S1J,K. The procedure:
Figure 3 Autophagy selectively degrades PBRM1 via the autophagic receptor p62 in a CDC20‐dependent manner. A) IB analysis of WCL lysates derived from WT or CDC20 knockdown 786‐O and 769‐P cells treated with NH4Cl (20 mM, 24 h) before harvesting. B) IB analysis of WCL lysates derived from 786‐O and 769‐P cells treated with NH4Cl (20 mM) for indicated hours. C) IB analysis of WCL lysates derived from 786‐O and 769‐P cells treated with chloroquine (CQ, 50 µM) for indicated hours. D) IB analysis of WCL lysates derived from 786‐O and 769‐P cells treated with glucose starvation (G.S.) for indicated hours. E) IB analysis of WCL lysates derived from 786‐O and 769‐P cells treated with serum starvation (S.S.) for indicated hours. F) IB analysis of WCL lysates derived from wild‐type (WT) or ATG5 knockdown 786‐O and 769‐P cells treated with serum starvation (S.S.) for indicated hours before harvesting. G) IB analysis of WCL and anti‐HA immunoprecipitates derived from 293T cells transfected with HA‐p62 and V5‐PBRM1. H) IB analysis of WCL and anti‐Flag immunoprecipitates derived from 293T cells transfected with Flag‐p62 and V5‐PBRM1. I) IB analysis of WCL lysates derived from shScr or p62 knockdown 786‐O and 769‐P cells using shRNA. J) IB analysis of WCL lysates derived from NC or p62 knockdown 786‐O cells using siRNA. NC, negative control. K,L) Immunoblotting analysis (K) and quantification (L) of cell lysates of WT and p62 knockdown 786‐O cells treated with cycloheximide (CHX, 20 µg ml^−1) at indicated time points. M) IB analysis of WCL and GST‐pull‐down products derived from 293T cells transfected with GST‐p62 and V5‐PBRM1. 24 h post transfection, cells were treated with serum starvation (S.S.) for 24 h before harvesting the cells. N) IB analysis of WCL and GST‐pull‐down products derived from 293T cells transfected with GST‐p62, HA‐CDC20 and V5‐PBRM1. O) IB analysis of WCL and GST‐pull‐down products derived from WT and CDC20 knockdown 293T cells transfected with GST‐p62 and V5‐PBRM1. P) Schematic representation of truncated constructs of p62 for mapping the interaction domain with PBRM1. Q) IB analysis of WCL and GST‐pull‐down products derived from 293T cells transfected with V5‐PBRM1 and indicated constructs of GST‐p62 plasmids. R) Schematic representation of truncated constructs of p62 for mapping the interaction domain with PBRM1. S) IB analysis of WCL and GST‐pull‐down products derived from 293T cells transfected with V5‐PBRM1 and indicated constructs of GST‐p62 plasmids.
Cells were washed 3 times with ice‐cold phosphate‐buffered saline (PBS). The appropriate RIPA or IP buffer was added, which was mixed with protease and phosphatase inhibitors in advance. After centrifugation, the cell lysate supernatant was collected and checked using the BCA qualification system. The appropriate protein‐loading buffer was added to the protein lysates and denatured in a boiling water bath for 5 min. Each sample contained 30 µg protein, which was loaded onto 8% or 10% SDS‐PAGE gels and transferred to a polyvinylidene fluoride (PVDF) membrane. Then, the PVDF membranes were […] in fresh milk for 1 h at room temperature. Primary antibodies of the targets were added to the PVDF membranes and incubated overnight at 4 °C. The cells were rinsed 3 times with TBST buffer, followed by incubation with peroxidase‐conjugated antibodies at room temperature for 1 h. After washing, the PVDF membranes were analyzed and visualized using an ECL system (Bio‐Rad, Hercules, CA, USA).
Supplementary Figure 1. PBRM1 fluctuates during cell cycle progression. (A) IB analysis of WCL and anti-HA immunoprecipitates derived from 293T cells transfected with HA-CDC20 and Flag-PBRM1. (B) Schematic representation of truncated constructs of CDC20 for mapping the interaction domain with PBRM1. (C) IB analysis of WCL and GST-pull-down products derived from 293T cells transfected with Flag-PBRM1 and indicated constructs of GST-CDC20. Vec, vector. […]
For orientation: Immunoblotting shows a protein as a band on a membrane.

Setting [1] is: 786-O and 769-P cells, NH4Cl 20 mM, chloroquine 50 µM, indicated hours.

With `CC(C)C[C@@H](C=O)NC(=O)[C@H](CC(C)C)NC(=O)[C@H](CC(C)C)NC(=O)OCc1ccccc1` [MG132] (Cbz-Leu-Leu-Leu-aldehyde), under “renca and 786-O cells, MG132 10 μM 12 hours, Figure S5O”, the “protein level of PBRM1” value is listed as “enhance the protein level of PBRM1”.

For the molecule `Cl.N` [NH4Cl, ammonium chloride], the “protein level of PBRM1” value under setting [1] is recorded as “increased”.

On to `CCN(CC)CCCC(C)Nc1ccnc2cc(Cl)ccc12` (stereo not shown) [chloroquine], for which the “protein level of PBRM1” value under setting [1] is on record as “upregulated”.

As to `COC(=O)Nc1nc2ccc(C(=O)c3cccs3)cc2[nH]1` [nocodazole], for the setting “786-O and 769-P cells”, the CDC20 protein level result is listed as “decreased” and the PBRM1 protein level result is listed as “upregulated”.

For `CC(=O)O[C@H]1C(=O)[C@@]2(C)[C@H]([C@H](OC(=O)c3ccccc3)[C@]3(O)C[C@H](OC(=O)[C@H](O)[C@@H](NC(=O)c4ccccc4)c4ccccc4)C(C)=C1C3(C)C)[C@]1(OC(C)=O)CO[C@@H]1C[C@@H]2O` [taxol, paclitaxel], for the setting “786-O and 769-P cells”, the CDC20 protein level result is “decreased” and the PBRM1 protein level entry is “upregulated”.
